Experimental data: the supplement of paper PMC3493320

System: NCI-H295R
Test: IC50 (antiproliferative, ATP content)
Conditions: 48 h
Method in brief: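 Adrenocortical carcinoma cells in 1536-well plates (1500 per well, serum-free DMEM plus ITS, overnight culture) were exposed for 48 h at 37 °C, 5% CO2 to pin-transferred compounds at 8 final concentrations ranging 0.6 nM to 46 µM. ATP content was then read as CellTiter-Glo luminescence and normalised to vehicle and positive-control wells. The IC50 came from logistic curve fits, and any compound lacking a concentration response was recorded as above the top dose.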

| SMILES | IC50 |
| --- | --- |
| CC[C@H]1OC(=O)C[C@@H](O)[C@H](C)[C@@H](O[C@@H]2O[C@H](C)[C@@H](O)[C@H](N(C)C)[C@H]2O)[C@@H](CCN2C[C@H](C)C[C@H](C)C2)C[C@@H](C)C(=O)/C=C/C(C)=C/[C@@H]1CO[C@@H]1O[C@H](C)[C@@H](O)[C@@H](OC)[C@H]1OC | > 46 µM |
| O=C3N1/C(=C(/C)CS[C@@H]1[C@@H]3NC(=O)[C@H](N)c2ccccc2)C(O)=O | > 46 µM |
| CCCC(=O)[O-].[Na+] | > 46 µM |
| O=C(CCBr)N1CCN(C(=O)CCBr)CC1 | > 46 µM |
| CN(C(=O)c1c(O)c2ccccc2n(C)c1=O)c1ccccc1 | > 46 µM |
| CC(C)(O/N=C(\C(=O)N[C@@H]1C(=O)N2C(C(=O)[O-])=C(C[n+]3ccccc3)CS[C@H]12)c1csc(N)n1)C(=O)O.O.O.O.O.O | > 46 µM |
| CCCCC(=O)O[C@]1(C(=O)CO)CC[C@H]2[C@@H]3CCC4=CC(=O)CC[C@]4(C)[C@H]3[C@@H](O)C[C@@]21C | > 46 µM |
| O=C3N1/C(=C(/Cl)CS[C@@H]1[C@@H]3NC(=O)[C@H](N)c2ccccc2)C(O)=O | > 46 µM |
| COP(=S)(OC)SCN1C(=O)c2ccccc2C1=O | > 46 µM |
| CN(C)CC/C=C1\c2ccccc2COc2ccccc21.Cl | > 46 µM |
| CC1=C(/C=C/C(C)=C/C=C/C(C)=C/C=C/C=C(C)/C=C/C=C(C)/C=C/C2=C(C)CCCC2(C)C)C(C)(C)CCC1 | > 46 µM |
| COc1ccc(C2CNC(=O)C2)cc1OC1CCCC1 (configuration not stated) | > 46 µM |
| CCC(C(=O)NC(N)=O)c1ccccc1 (configuration not stated) | > 46 µM |
| C[C@H](CCC(=O)O)[C@H]1CC[C@H]2[C@@H]3[C@H](O)C[C@@H]4C[C@H](O)CC[C@]4(C)[C@H]3CC[C@]12C | > 46 µM |
| O=C1C(C(O)=CC(O)=C2)=C2O[C@H]([C@](C=C5)=CC3=C5O[C@H](CO)[C@@H]([C@]4=CC(OC)=C(O)C=C4)O3)[C@H]1O | > 46 µM |
| OC[C@H](CC)NC(=O)[C@@H]2/C=C1/c3cccc4N\C=C(\C[C@H]1N(C)C2)c34 | > 46 µM |
| CCCc1nc(C)c2c(=O)nc(-c3cc(S(=O)(=O)N4CCN(CC)CC4)ccc3OCC)[nH]n12.O=C(O)CC(O)(CC(=O)O)C(=O)O | > 46 µM |
| CN1CCC[C@@H]1c1cccnc1 | > 46 µM |
| CCOc1ccc(C(=O)OCCN(CC)CC)cc1 | > 46 µM |
| CC(C)=CCC/C(C)=C/C=C/C(C)=C/C=C/C(C)=C/C=C/C=C(C)/C=C/C=C(C)/C=C/C=C(\C)CCC=C(C)C | > 46 µM |
| C[C@H]1O[C@H]1P(=O)([O-])[O-].[Ca+2] | > 46 µM |
| CCOC(=O)C(CS)NCCNC(CS)C(=O)OCC.Cl.Cl (configuration not stated) | > 46 µM |
| N[C@@H](Cc1ccc(Oc2cc(I)c(O)c(I)c2)c(I)c1)C(=O)O | > 46 µM |
| Cc1ccc(S(=O)(=O)[O-])cc1C.[Na+] | > 46 µM |

| SMILES | IC50 |
| --- | --- |
| CC(C)(CO)[C@@H](O)C(=O)NCCCO | > 46 µM |
| C/C(=C\C(=O)OCCCCCCCCC(=O)O)C[C@@H]1OC[C@H](C[C@@H]2O[C@H]2[C@@H](C)[C@H](C)O)[C@@H](O)[C@H]1O | > 46 µM |
| O=[C@](CO)[C@](CC2)(O)[C@](CC1)(C)[C@]2([H])[C@@](CC4)([H])[C@@]1([H])[C@](CC3)(C)C4=CC3=O | > 46 µM |
| CCN(CC)C(=O)c1ccc(O)c(OC)c1 | > 46 µM |
| CCN(CC)C(=O)N[C@@H]1C=C2c3cccc4[nH]cc(c34)C[C@@H]2N(C)C1 | > 46 µM |
| O=C(O)/C=C/c1ccccc1 | > 46 µM |
| Cc1cccc(Nc2cc(Cl)nc(SCC(=O)O)n2)c1C | > 46 µM |
| CCN(CC)C(=O)C(Cl)=C(C)OP(=O)(OC)OC | > 46 µM |
| CC(C)(C)NCC(O)c1cc(Cl)c(N)c(C(F)(F)F)c1.Cl (configuration not stated) | > 46 µM |
| COC1[C@@H](O[C@@H]2O[C@H](C)[C@@H](O[C@H]3C[C@@](C)(O)[C@H](OC(=O)CC(C)C)[C@H](C)O3)[C@H](N(C)C)[C@H]2O)[C@@H](CC=O)C[C@@H](C)[C@@H](O)/C=C/C=C/C[C@@H](C)OC(=O)C[C@H]1OC(C)=O (some centres not stated) | > 46 µM |
| Cl.O=C(NC1CCN(CCc2c[nH]c3ccccc23)CC1)c1ccccc1 | > 46 µM |
| O=c1[nH]c(=O)n(C2CCCO2)cc1F (configuration not stated) | > 46 µM |
| CC(C)(C)NCC(O)COc1ccc(NC(=O)NC2CCCCC2)cc1 (configuration not stated) | > 46 µM |
| Cl.NCCCC(N)(C(=O)O)C(F)F (configuration not stated) | > 46 µM |
| Cc1nc2c([nH]1)c(=O)n(C)c(=O)n2Cc1ccco1 | > 46 µM |
| COc1cc(NS(=O)(=O)c2ccc(N)cc2)ncn1 | > 46 µM |
| CN1C(=O)OC(C)(C)C1=O | > 46 µM |
| CC(C)[N+](C)(CCC(C(N)=O)(c1ccccc1)c1ccccc1)C(C)C | > 46 µM |
| CN1C(=O)CC(=O)N(c2ccccc2)c2cc(Cl)ccc21 | > 46 µM |
| C[Se]CC[C@H](N)C(=O)O | > 46 µM |
| Clc1ccc(C2(Cn3cncn3)OCCO2)c(Cl)c1 | > 46 µM |
| C=CCN=C=S | > 46 µM |
| C(N3C2)(SCC3)=N[C@H]2[C@@]1=CC=CC=C1.Cl | > 46 µM |
| CCCCN1CCCC1C(=O)Nc1c(C)cc(C)cc1C (configuration not stated) | > 46 µM |

| SMILES | IC50 |
| --- | --- |
| O=C(O)Cc1cn(-c2ccccc2)nc1-c1ccc(Cl)cc1 | > 46 µM |
| CC(=O)N[C@@H]([C@@H](O)[C@H](O)[C@H](O)CO)[C@@H](O)CC(=O)C(=O)O | > 46 µM |
| NCCCC(=O)O | > 46 µM |
| N[C@H](CO)C(=O)O | > 46 µM |
| CCN1CCN(C(=O)N[C@@H](C(=O)N[C@@H]2C(=O)N3C(C(=O)[O-])=C(CSc4nnnn4C)CS[C@H]23)c2ccc(O)cc2)C(=O)C1=O.[Na+] | > 46 µM |
| O=c1[nH]cnc2nc[nH]c12 | > 46 µM |
| CCN(CC)C(=O)N[C@H]1C[C@@H]2c3cccc4[nH]cc(c34)C[C@H]2N(C)C1 | > 46 µM |
| [H][C@@]1(CC\C3=C(C4=CC=CS4)/C2=CC=CS2)[N@+](CCCC1)(C3)C.[Br-] | > 46 µM |
| CCOC(=O)n1ccn(C)c1=S | > 46 µM |
| CC1CCc2c(N3CCC(O)CC3)c(F)cc3c(=O)c(C(=O)O)cn1c23 (configuration not stated) | > 46 µM |
| Cn1cnc2c1c(=O)[nH]c(=O)n2C | > 46 µM |
| CCCCC[C@H](O)/C=C/[C@H]1[C@H](O)CC(=O)[C@@H]1C/C=C\CCCC(=O)O | > 46 µM |
| Clc1ccc(Cl)cc1 | > 46 µM |
| CC(O)[C@H]1CC[C@H]2[C@@H]3CC[C@@H]4C[C@@H](O)CC[C@]4(C)[C@H]3CC[C@]12C (some centres not stated) | > 46 µM |
| O=[C@](O)[C@H]2N(C([C@H](C)N[C@H]([C@@](OCC)=O)CCC3=CC=CC=C3)=O)[C@@]1([H])CCCC[C@@]([H])1C2 | > 46 µM |
| CCC1C(C)=NN=C(c2ccc(OC)c(OC)c2)c2cc(OC)c(OC)cc21 (configuration not stated) | > 46 µM |
| C1CCN2C[C@@H]3C[C@@H](CN4CCCC[C@@H]34)[C@H]2C1 | > 46 µM |
| O=C1CCC(N2C(=O)c3ccccc3C2=O)C(=O)N1 (configuration not stated) | > 46 µM |
| CN1C(CCl)Nc2cc(Cl)c(S(N)(=O)=O)cc2S1(=O)=O (configuration not stated) | > 46 µM |
| ClC=C(Cl)Cl | > 46 µM |
| CN1[C@@H]2CC[C@@H]1CC(OC1c3ccccc3CCc3ccccc31)C2.O=C(O)CC(O)(CC(=O)O)C(=O)O (some centres not stated) | > 46 µM |
| CC(=O)Oc1c(C)cc(OCC(O)CNC(C)C)c(C)c1C (configuration not stated) | > 46 µM |
| C[N+]1(CC2COC(c3ccccc3)(C3CCCCC3)O2)CCCCC1.[I-] (configuration not stated) | > 46 µM |
| CN1C(=O)C(C)(C2=CCCCC2)C(=O)N=C1O (configuration not stated) | > 46 µM |
